A short description of data set [1]: Fluorescence quantum yield of BDSA in solution and as nanoaggregates. In kind it is physicochemical. An excerpt:
A representative transmission electron microscopic (TEM) image of the obtained nanoaggregates with a diameter of 44±7 nm is shown in FIG. 1a. […] The fluorescence quantum yield (Φf) of nanoaggregated state varies (0.1˜0.3), depending on the preparation conditions, including solvent, solvent/water ratio, and overall dye concentration, etc. […] No notable sign of H- or J-aggregation was observed, implying that molecular stacking is neither too close nor well ordered within the nanoaggregated structure. The fluorescence quenching in solution can be understood as dominant non-radiative decay, enhanced by free intramolecular torsional motion in solution, as in the case of flexible molecules showing viscosity-dependent fluorescence. Moreover, the weak, broad, and red-shifted emission of the solution, compared to that of the aggregate, implies the existence of large-amplitude relaxation in the excited state, such as twisted intramolecular charge transfer (TICT) which often acts as an intramolecular fluorescence quencher due to the nπ* characteristics. This is supported by our observation of intense and blue-shifted monomer fluorescence from a dilute solid solution of BDSA in PMMA film, where isolated molecules are frozen in the distorted form by rigid matrix, to prevent fluorescence quenching motion. The structural effect on aggregate formation and fluorescence was studied with a specific comparison between BDSA and the 1,4-phenylene analogue, BDSB, by varying the solvent/water ratio.

The nature of data set [2]: One- and two-photon excited fluorescence of HPPH/BDSA nanoparticles (intraparticle FRET). To be noted: free HPPH, self-aggregation. In kind it is physicochemical. On the procedure:
To produce fluorescent domains of BDSA aggregates in the particle matrix, the following amounts were loaded to induce phase separation: 10, 20, and 30 wt % with respect to the total VTES amount. Fluorescence lifetime measurements were performed using Time correlated Single Photon Counting (TCSPC) technique. For this measurements, Ti:Sapphire laser providing 800 nm femtosecond pulses was used as excitation source and a SPC-830 TCSPC module (Becker & Hickl) with an H7422 (Hamamatsu) detector with a response time in the range of 250 ps was used for the measurements. […] For an estimation of the instrument response function (IRF), a dye with a known fluorescence lifetime (from Streak camera measurements), less than 50 ps was used. […] For quantitative comparison, the concentrations of the nanoparticle water dispersions were kept the same for all the sample sets. The dispersions of all examined HPPH-loaded nanoparticles had the absorbance of 0.07 at 665 nm.
When excited at 425 nm, the obtained fluorescence spectrum of the coencapsulating nanoparticles is a composite of the emission contributions from the donor BDSA aggregates and the acceptor HPPH. Compared with the fluorescence intensities of the nanoparticles containing the corresponding amount of each dye, BDSA emission is quenched by 70% and HPPH emission is amplified ca. 5 times, indicating the occurrence of FRET. […]

Consider `CN(CCOC(=O)c1ccccc1)c1ccc(C=Cc2ccc(C=Cc3c4ccccc4c(C=Cc4ccc(C=Cc5ccc(N(C)CCOC(=O)c6ccccc6)cc5)cc4)c4ccccc34)cc2)cc1` [BDSA, 9,10-Bis(4′-{4″-[N-methyl-N-(2-benzoyloxyethyl)amino]styryl}styryl)anthracene], for which the “Fluorescence quantum yield (Φf)” value in data set [1] (NMP solution) is listed as approximately 0.009. In addition, in data set [1] (aggregate versus NMP solution), the “Fluorescence intensification by aggregation” value was “more than 30 times”. The “Fluorescence change on aggregate formation” value in data set [1] (varying solvent/water ratio, THF/H2O, 5 μM (FIG. 2)) is reported as “Enhanced fluorescence is seen”.

With `CCCCCCOC(C)C1=C(C)c2cc3nc(c4c5[nH]c(cc6[nH]c(cc1n2)c(C)c6CC)c(C)c5C(=O)C4)C(CCC(=O)O)C3C` (stereo not shown) [HPPH, 2-devinyl-2-(1-hexyloxyethyl)pyropheophorbide], the “Fluorescence in water dispersions” value in data set [2] is on record as “completely quenched”.

The values above are taken from patent publication US20080233051A1, “Nanoparticles for two-photon activated photodynamic therapy and imaging” (priority 2006, published 2008).
